One assay deals with Pantoea agglomerans. The assay is described as follows: In vitro antibacterial activity, agar dilution method (MIC). The assay is classed as cell-based. As for the experimental part:
(§1) According to the relevant operating procedures of the Clinical Laboratory Standards Institute (CLSI) in the United States, an antimicrobial susceptibility testing was conducted using the agar dilution method. […]. The agar was allowed to solidify and set aside for later use.
(§2) The test bacteria were propagated in broth and adjusted to a turbidity of 0.5 McFarland (approximately 1-2 × 10^8 CFU/mL) using a turbidimeter before inoculation. The 0.5 McFarland bacterial solution was then diluted 10-fold in broth (approximately 1-2 × 10^7 CFU/mL). A multipoint inoculator was used to inoculate the above bacterial solution onto a series of plates containing different concentrations of drugs (with an inoculation amount of approximately 10^4 CFU per inoculation site). After incubation at a constant temperature of 35°C for 18 hours, results were observed. The minimum concentration of drugs contained in sterile growth plates was determined as the Minimal Inhibitory Concentration (MIC).

Another assay has as its system Proteus mirabilis. Described as above. The assay is classed as cell-based. As for the experimental part:
as §1, §2

The next assay concerns Pseudomonas aeruginosa. The assay is described as above. It counts as cell-based. As for the experimental part: as §1, §2
The next assay concerns Citrobacter freundii. Described as above. It counts as cell-based. As for the experimental part: as §1, §2
The next assay concerns Serratia marcescens. Described as above. The assay is classed as cell-based. As for the experimental part:
as §1, §2

The subject of the next assay is Escherichia coli. The assay is described as above. The assay is classed as cell-based. As to conditions: agar dilution, 35°C. As for the experimental part:
as §1, §2
Background: Agar dilution tests growth on a series of plates holding different concentrations.

In another assay the test system is Enterobacter aerogenes. Described as above. It counts as cell-based. As for the experimental part:
as §1, §2

Another assay concerns Klebsiella pneumoniae. Described as above. It counts as cell-based. As to conditions: agar dilution, 35°C. As for the experimental part:
as §1, §2

The test system of the next assay is Proteus vulgaris. The assay is described as above. The assay is classed as cell-based. As for the experimental part: as §1, §2
Another assay concerns Enterobacter cloacae. Described as above. The assay is classed as cell-based. As for the experimental part: According to the relevant operating procedures of the Clinical Laboratory Standards Institute (CLSI) in the United States, an antimicrobial susceptibility testing was conducted using the agar dilution method. […] The agar was allowed to solidify and set aside for later use.
as §2

Another assay relates to Shigella flexneri. Described as above. It counts as cell-based. As to conditions: 18 hours. As for the experimental part:
According to the relevant operating procedures of the Clinical Laboratory Standards Institute (CLSI) in the United States, an antimicrobial susceptibility testing was conducted using the agar dilution method. A 1920 µg/mL stock solution was serially diluted twofold with sterile water to obtain dilutions of 960, 480, 240, 120, 60, 30, 15, 7.5, 3.75, 1.88, 0.94, 0.47 µg/mL, and 1 mL of the dilution was taken respectively from the dilutions with different concentrations and added to a Petri dish, to which 14 mL of melted MH agar medium was added and mixed thoroughly, and the final concentration of the drug in the petri dish is 128, 64, 32, 16, 8, 4, 2, 1, 0.5, 0.25, 0.12, 0.06, and 0.03 µ g/mL, respectively. The agar was allowed to solidify and set aside for later use.
as §2

Assay [1] has as its system Escherichia coli ATCC BAA2469 (CRE, NDM-1-producing). The assay is described as follows: In vivo antibacterial activity, intraperitoneal infection in mice (survival over 7 days). As to conditions: for Animal survival rate / Number of surviving animals: mice, one intravenous administration 1 hour post-infection, 7 days; for Number of surviving animals: 5 animals per group. As for the experimental part:
Mice were randomly grouped based on body weight, with 5 mice in each group, regardless of gender. The infectious bacteria was Escherichia coli ATCC BAA2469 (CRE, NDM-1-producing). The test bacterial solution was diluted with 5% high-activity dry yeast. Mice received intraperitoneal injection of 0.5 mL of 100% minimum lethal dose (100% MLD) bacterial solution. One intravenous administration was given at 1 hour post-infection at a dose volume of 10 mL/kg. Animal survival numbers were observed over 7 days, and survival rates were calculated.

The mark [2] stands for this setting: Pantoea agglomerans ATCC 27993, agar dilution, 35°C, 18 hours.
Where [3] appears, read: Proteus mirabilis ATCC 49565, agar dilution, 35°C, 18 hours.
Where [4] appears, read: Pseudomonas aeruginosa PAO1, agar dilution, 35°C, 18 hours.
Where [5] appears, read: Citrobacter freundii ATCC 43864, agar dilution, 35°C, 18 hours.
[6] abbreviates: Serratia marcescens ATCC 21074, agar dilution, 35°C, 18 hours.
Where [7] appears, read: Escherichia coli 13-43 (mcr-1), 18 hours.
[8] abbreviates: Escherichia coli 17-R28 (CRE, NDM-1-producing), 18 hours.
[9] abbreviates: Escherichia coli ATCC 2469 (CRE, NDM-1-producing), 18 hours.
The mark [10] stands for this setting: Escherichia coli ATCC 35218 (ESBLs-producing), 18 hours.
[11] abbreviates: Enterobacter aerogenes ATCC 13048, agar dilution, 35°C, 18 hours.
[12] abbreviates: Klebsiella pneumoniae 09-20 (mcr-1), 18 hours.
Where [13] appears, read: Klebsiella pneumoniae 17-R27 (CRE), 18 hours.
Setting [14] is: Klebsiella pneumoniae 18-8 (ESBLs-producing), 18 hours.
The mark [15] stands for this setting: Klebsiella pneumoniae ATCC 700603 (ESBLs-producing), 18 hours.
[16] abbreviates: Klebsiella pneumoniae ATCC BAA-2146 (CRE, NDM-1-producing), 18 hours.
Where [17] appears, read: Proteus vulgaris ATCC 29905, agar dilution, 35°C, 18 hours.
Where [18] appears, read: Enterobacter cloacae CDC1000654 (NDM-1-producing), agar dilution, 35°C, 18 hours.
[19] abbreviates: Shigella flexneri ATCC 12022, 35°C.

≈ marks a conversion by molar mass, not a printed value. Like-named read-outs stand apart in the source and are kept apart here.

The term MIC denotes the lowest concentration that inhibits growth of the organism. In the case of `CN(C)c1cc(NC(=O)CNC(C)(C)C)c(O)c2c1C[C@H]1C[C@H]3[C@H](N(C)C)C(O)=C(C(N)=O)C(=O)[C@@]3(O)C(O)=C1C2=O` [Tigecycline], the MIC with Pantoea agglomerans (Pantoea agglomerans, ATCC27993, 18 h) was found to be 0.5 µg/mL (≈ 0.854 µM); in the assay with Proteus mirabilis (Proteus mirabilis, ATCC49565, 18 h), 4 µg/mL (≈ 6.83 µM); against Pseudomonas aeruginosa (Pseudomonas aeruginosa, PAO1, 18 h), 16 µg/mL (≈ 27.3 µM); against Citrobacter freundii (Citrobacter freundii, ATCC43864, 18 h), 1 µg/mL (≈ 1.71 µM); against Serratia marcescens (Serratia marcescens, ATCC21074, 18 h) it was 2 µg/mL (≈ 3.41 µM); in the assay with Escherichia coli (Escherichia coli, 18 h, Escherichia coli 13-43 (mcr-1)), 1 µg/mL (≈ 1.71 µM). Further, the MIC in the assay on Escherichia coli (Escherichia coli, 18 h, Escherichia coli 17-R28 (CRE, NDM-1-producing)) amounted to 0.12 µg/mL (≈ 0.205 µM); with Escherichia coli (Escherichia coli, ATCC2469, 18 h, Escherichia coli ATCC 2469 (CRE, NDM-1-producing), 18 hours), 0.5 µg/mL (≈ 0.854 µM); with Escherichia coli (Escherichia coli, ATCC35218, 18 h, Escherichia coli ATCC 35218 (ESBLs-producing), 18 hours, read-out: MIC), 0.12 µg/mL (≈ 0.205 µM); against Enterobacter aerogenes (Klebsiella aerogenes, ATCC13048, 18 h), 1 µg/mL (≈ 1.71 µM); against Klebsiella pneumoniae (Klebsiella pneumoniae, 18 h, Klebsiella pneumoniae 09-20 (mcr-1)), 2 µg/mL (≈ 3.41 µM); against Klebsiella pneumoniae (Klebsiella pneumoniae, 18 h, Klebsiella pneumoniae 17-R27 (CRE)) it was 2 µg/mL (≈ 3.41 µM). For the same compound, the minimal inhibitory concentration (MIC) with Klebsiella pneumoniae (Klebsiella pneumoniae, 18 h, Klebsiella pneumoniae 18-8 (ESBLs-producing), 18 hours, read-out: MIC) worked out at 2 µg/mL (≈ 3.41 µM); in the assay on Klebsiella pneumoniae (Klebsiella pneumoniae, ATCC700603, 18 h, Klebsiella pneumoniae ATCC 700603 (ESBLs-producing), 18 hours, read-out: MIC), 8 µg/mL (≈ 13.7 µM); against Klebsiella pneumoniae (Klebsiella pneumoniae, ATCCBAA2146, 18 h, Klebsiella pneumoniae ATCC BAA-2146 (CRE, NDM-1-producing), 18 hours) it was 8 µg/mL (≈ 13.7 µM); against Proteus vulgaris (Proteus vulgaris, ATCC29905, 18 h), 2 µg/mL (≈ 3.41 µM); in the assay on Enterobacter cloacae (Enterobacter cloacae, 18 h), 8 µg/mL (≈ 13.7 µM); with Shigella flexneri (ATCC12022, Shigella flexneri ATCC 12022, 35°C, read-out: MIC) it was 0.12 µg/mL (≈ 0.205 µM).
For the compound Colistin, the MIC against Pantoea agglomerans (setting [2]) is recorded as 0.5 µg/mL; against Proteus mirabilis (setting [3]) it was more than 128 µg/mL; against Pseudomonas aeruginosa (setting [4]), 2 µg/mL; against Citrobacter freundii (setting [5]) it was 0.5 µg/mL; in the assay on Serratia marcescens (setting [6]), more than 128 µg/mL; against Escherichia coli (setting [7]), 16 µg/mL. The MIC with Escherichia coli (setting [8]) is recorded as 0.5 µg/mL; in the assay on Escherichia coli (setting [9]), 0.5 µg/mL; in the assay with Escherichia coli (setting [10]) it was 0.5 µg/mL; against Enterobacter aerogenes (setting [11]) it was 0.5 µg/mL; against Klebsiella pneumoniae (setting [12]), 16 µg/mL; with Klebsiella pneumoniae (setting [13]), 16 µg/mL. Besides, the MIC in the assay with Klebsiella pneumoniae (setting [14]) is on record as 0.5 µg/mL; against Klebsiella pneumoniae (setting [15]) it was 0.5 µg/mL; against Klebsiella pneumoniae (setting [16]) it was 1 µg/mL; in the assay on Proteus vulgaris (setting [17]), more than 128 µg/mL; against Enterobacter cloacae (setting [18]), 0.5 µg/mL; in the assay with Shigella flexneri (setting [19]), 0.5 µg/mL. In [1] (mice with intraperitoneal infection by Escherichia coli ATCC BAA2469, intravenous), the “effective dose of in vivo antibacterial activity” value was “below 1.5 mg/kg”. The Animal survival rate in [1] (dose 0.35 mg/kg) amounted to 0%; in assay [1] (dose 0.7 mg/kg), 20%; in assay [1] (dose 1.4 mg/kg), 80%. In addition, the “Number of surviving animals” value in assay [1] (dose 0.35 mg/kg) was 0 individuals; in assay [1] (dose 0.7 mg/kg), 1 individuals; in assay [1] (dose 1.4 mg/kg), 4 individuals.
Take Polymyxin B: the minimal inhibitory concentration (MIC) against Pantoea agglomerans (setting [2]) is listed as 1 µg/mL; against Proteus mirabilis (setting [3]), more than 128 µg/mL; with Pseudomonas aeruginosa (setting [4]), 2 µg/mL; in the assay on Citrobacter freundii (setting [5]), 2 µg/mL; with Serratia marcescens (setting [6]), more than 128 µg/mL; with Escherichia coli (setting [7]) it was 8 µg/mL. In addition, the minimal inhibitory concentration (MIC) against Escherichia coli (setting [8]) was 0.5 µg/mL; against Escherichia coli (setting [9]) it was 1 µg/mL; against Escherichia coli (setting [10]), 0.5 µg/mL; in the assay with Enterobacter aerogenes (setting [11]) it was 1 µg/mL; against Klebsiella pneumoniae (setting [12]) it was 16 µg/mL; in the assay with Klebsiella pneumoniae (setting [13]) it was 16 µg/mL. Besides, the MIC is on record as 1 µg/mL in the assay on Klebsiella pneumoniae (setting [14]); 1 µg/mL in the assay with Klebsiella pneumoniae (setting [15]); 1 µg/mL against Klebsiella pneumoniae (setting [16]); more than 128 µg/mL with Proteus vulgaris (setting [17]); 2 µg/mL with Enterobacter cloacae (setting [18]); 1 µg/mL against Shigella flexneri (setting [19]).

Values taken from patent publication EP4745118A1, “HYDROXAMIC ACID COMPOUND OR PHARMACEUTICALLY ACCEPTABLE SALT THEREOF, AND USE THEREOF AND PREPARATION METHOD THEREFOR” (priority 2023, dated 2025).
